The target in assay [1] is T1, C17ORF101 (Homo sapiens, UniProt Q6PK18).
T1 construct: capturing and identification of dioxygenases from nuclear protein extracts; endogenous in cells
T1 sequence (Q6PK18 1-331 isoform Q6PK18-2): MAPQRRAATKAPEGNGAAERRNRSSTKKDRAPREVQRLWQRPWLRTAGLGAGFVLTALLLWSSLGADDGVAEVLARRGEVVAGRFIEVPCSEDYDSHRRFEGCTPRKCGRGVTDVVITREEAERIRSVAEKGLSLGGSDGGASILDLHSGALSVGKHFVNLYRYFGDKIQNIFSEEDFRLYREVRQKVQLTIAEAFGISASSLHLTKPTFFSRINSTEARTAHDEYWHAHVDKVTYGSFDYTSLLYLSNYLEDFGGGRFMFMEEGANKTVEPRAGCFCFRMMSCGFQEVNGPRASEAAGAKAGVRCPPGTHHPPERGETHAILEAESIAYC
In words: Bead competition binding assay, immobilized compound B, HL-60 nuclear extract. The note with it: 200 µM free compound B, read-out: Fold change versus DMSO control. How it is done: (§1) The preparation of HL-60 nuclear lysates, capturing of dioxygenases from cell lysate and the protein identification by Mass Spectrometry was performed as described in example 2.
(§2) Seven different dioxygenases were identified. […] Table 7: Identified dioxygenases with compound B from HL-60 nuclear extract

Assay [2] concerns the target T2, LEPRE1 (Homo sapiens, UniProt Q32P28).
T2 construct: capturing and identification of dioxygenases from nuclear protein extracts; endogenous in cells
T2 sequence (Q32P28 23-736): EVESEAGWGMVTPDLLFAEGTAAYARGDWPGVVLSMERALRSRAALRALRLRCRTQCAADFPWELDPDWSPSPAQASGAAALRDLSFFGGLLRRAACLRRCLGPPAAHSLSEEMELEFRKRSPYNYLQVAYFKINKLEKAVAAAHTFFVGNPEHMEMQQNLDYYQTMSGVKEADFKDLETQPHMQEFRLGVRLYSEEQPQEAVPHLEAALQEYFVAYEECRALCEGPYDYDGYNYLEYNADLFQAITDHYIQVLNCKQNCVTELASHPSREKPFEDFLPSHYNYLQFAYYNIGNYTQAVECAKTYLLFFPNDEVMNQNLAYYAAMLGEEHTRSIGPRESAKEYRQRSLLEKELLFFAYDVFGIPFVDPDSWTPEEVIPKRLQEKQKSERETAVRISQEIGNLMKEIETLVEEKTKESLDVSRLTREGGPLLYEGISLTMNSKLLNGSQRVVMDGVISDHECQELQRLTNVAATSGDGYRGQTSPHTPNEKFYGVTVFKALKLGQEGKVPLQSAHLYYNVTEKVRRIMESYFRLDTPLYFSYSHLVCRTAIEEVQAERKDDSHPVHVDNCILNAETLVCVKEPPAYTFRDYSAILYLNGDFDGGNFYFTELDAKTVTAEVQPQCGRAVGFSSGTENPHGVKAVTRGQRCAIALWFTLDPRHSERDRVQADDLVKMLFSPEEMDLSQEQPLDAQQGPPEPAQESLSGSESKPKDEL
The assay is described as above. The note with it: 200 µM free compound B, read-out: Fold change versus DMSO control. Here is the method:
as §1, §2

The target of assay [3] is T3, EGLN1 (Homo sapiens, UniProt Q9GZT9).
T3 construct: endogenous in cells
Described as above. The note with it: 200 µM free compound B, read-out: Fold change versus DMSO control. Here is the method:
as §1, §2

Assay [4] has as its target T4, LEPREL2 (Homo sapiens, UniProt Q8IVL6).
T4 construct: capturing and identification of dioxygenases from nuclear protein extracts; endogenous in cells
T4 sequence (Q8IVL6 21-736): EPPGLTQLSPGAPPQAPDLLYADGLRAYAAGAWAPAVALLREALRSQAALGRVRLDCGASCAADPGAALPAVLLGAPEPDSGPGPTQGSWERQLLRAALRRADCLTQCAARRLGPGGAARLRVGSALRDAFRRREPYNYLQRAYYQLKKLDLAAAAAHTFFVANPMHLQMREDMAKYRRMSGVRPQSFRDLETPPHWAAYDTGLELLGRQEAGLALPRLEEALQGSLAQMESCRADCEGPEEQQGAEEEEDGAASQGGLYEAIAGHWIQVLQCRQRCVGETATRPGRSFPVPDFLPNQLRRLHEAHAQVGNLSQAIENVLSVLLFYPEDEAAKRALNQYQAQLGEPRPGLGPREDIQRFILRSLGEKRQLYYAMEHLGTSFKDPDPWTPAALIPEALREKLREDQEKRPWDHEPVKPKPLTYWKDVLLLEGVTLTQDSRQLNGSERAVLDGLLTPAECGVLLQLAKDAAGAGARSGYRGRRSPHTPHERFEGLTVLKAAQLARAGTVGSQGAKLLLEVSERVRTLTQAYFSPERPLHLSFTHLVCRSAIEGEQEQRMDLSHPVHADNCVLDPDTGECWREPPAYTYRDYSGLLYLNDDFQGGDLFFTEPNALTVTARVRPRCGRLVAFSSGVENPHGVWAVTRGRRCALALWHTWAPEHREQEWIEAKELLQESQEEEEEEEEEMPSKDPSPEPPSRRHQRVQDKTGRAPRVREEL
The assay is described as above. The note with it: 200 µM free compound B, read-out: Fold change versus DMSO control. Here is the method:
as §1, §2

Assay [5] has as its target T5, ALKBH3 (Homo sapiens, UniProt Q96Q83).
T5 construct: capturing and identification of dioxygenases from nuclear protein extracts; endogenous in cells
T5 sequence (Q96Q83 1-286): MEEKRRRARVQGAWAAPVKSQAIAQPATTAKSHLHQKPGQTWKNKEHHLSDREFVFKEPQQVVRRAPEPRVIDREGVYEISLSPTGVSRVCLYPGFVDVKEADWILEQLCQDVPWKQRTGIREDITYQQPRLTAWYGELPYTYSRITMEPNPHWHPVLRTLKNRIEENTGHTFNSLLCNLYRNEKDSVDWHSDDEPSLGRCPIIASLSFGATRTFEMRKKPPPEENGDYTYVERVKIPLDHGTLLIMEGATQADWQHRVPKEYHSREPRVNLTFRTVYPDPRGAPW
Described as above. The settings on record: 200 µM free compound B, read-out: Fold change versus DMSO control. Here is the method:
as §1, §2

The next assay has as its target T6, OGFOD2 (Homo sapiens, UniProt Q6N063).
T6 construct: endogenous in cells; host or cells: HL-60 nuclear extract
T6 sequence (Q6N063 1-350): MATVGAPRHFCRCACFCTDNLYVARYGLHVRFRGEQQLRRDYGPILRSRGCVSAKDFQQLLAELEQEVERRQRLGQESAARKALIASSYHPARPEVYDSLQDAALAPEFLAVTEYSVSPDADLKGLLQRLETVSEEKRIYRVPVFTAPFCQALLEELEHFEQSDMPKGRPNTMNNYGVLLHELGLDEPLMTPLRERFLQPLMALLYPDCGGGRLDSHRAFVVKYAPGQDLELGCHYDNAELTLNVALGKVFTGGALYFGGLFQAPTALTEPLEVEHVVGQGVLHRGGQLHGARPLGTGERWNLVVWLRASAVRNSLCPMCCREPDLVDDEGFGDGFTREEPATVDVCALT
The assay is described as above. The settings on record: 200 µM free compound B, read-out: Fold change versus DMSO control. How it is done:
as §1, §2

Assay [6] concerns the target T7, P4HA1 (Homo sapiens, UniProt P13674).
T7 construct: endogenous in cells
The assay is described as above. The settings on record: 200 µM free compound B, read-out: Fold change versus DMSO control. Here is the method: as §1, §2

For assay [7], the target named is T1, C17ORF101. In words: Bead competition binding assay, immobilized compound C, HL-60 nuclear extract. The note with it: 200 µM free compound C, read-out: Fold change versus DMSO control. Here is the method:
as §1
(§3) Seven different dioxygenases were identified. […] Table 8: Identified dioxygenases with compound C from HL-60 nuclear extract

Assay [8] concerns the target T2, LEPRE1. The assay is described as above. The note with it: 200 µM free compound C, read-out: Fold change versus DMSO control. Here is the method:
as §1, §3

Assay [9] concerns the target T3, EGLN1. The description is as above. The settings on record: 200 µM free compound C, read-out: Fold change versus DMSO control. How it is done: as §1, §3
The target in assay [10] is T4, LEPREL2. The description is as above. The settings on record: 200 µM free compound C, read-out: Fold change versus DMSO control. How it is done: as §1, §3
The target of a further assay is T8, PLOD1 (Homo sapiens, UniProt Q02809).
T8 construct: capturing and identification of dioxygenases from nuclear protein extracts; endogenous in cells
T8 sequence (Q02809 19-727): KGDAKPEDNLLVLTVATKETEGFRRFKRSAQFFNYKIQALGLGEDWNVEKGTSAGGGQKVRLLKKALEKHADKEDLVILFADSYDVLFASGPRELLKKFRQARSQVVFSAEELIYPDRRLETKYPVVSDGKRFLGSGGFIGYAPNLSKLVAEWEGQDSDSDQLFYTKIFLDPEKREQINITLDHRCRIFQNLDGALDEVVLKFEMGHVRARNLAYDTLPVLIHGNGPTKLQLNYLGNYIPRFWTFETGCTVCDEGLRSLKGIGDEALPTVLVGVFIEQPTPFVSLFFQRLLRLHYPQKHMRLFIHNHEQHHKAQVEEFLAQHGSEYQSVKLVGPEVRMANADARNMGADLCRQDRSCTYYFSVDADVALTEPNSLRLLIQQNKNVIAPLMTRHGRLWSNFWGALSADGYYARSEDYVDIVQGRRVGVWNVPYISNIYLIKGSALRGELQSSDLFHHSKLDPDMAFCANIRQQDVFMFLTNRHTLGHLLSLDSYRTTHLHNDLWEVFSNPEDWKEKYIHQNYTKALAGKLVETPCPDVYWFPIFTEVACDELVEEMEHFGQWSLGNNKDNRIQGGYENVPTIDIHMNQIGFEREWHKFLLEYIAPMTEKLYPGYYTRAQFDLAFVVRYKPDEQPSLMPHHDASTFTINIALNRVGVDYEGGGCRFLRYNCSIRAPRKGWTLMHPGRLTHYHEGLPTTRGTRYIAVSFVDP
Described as above. The settings on record: 200 µM free compound C, read-out: Fold change versus DMSO control. Here is the method:
as §1, §3

For assay [11], the target named is T5, ALKBH3. Described as above. The note with it: 200 µM free compound C, read-out: Fold change versus DMSO control. How it is done:
as §1, §3

Assay [12] concerns the target T7, P4HA1. The assay is described as above. The settings on record: 200 µM free compound C, read-out: Fold change versus DMSO control. Here is the method:
as §1, §3

SMILES strings stand for the structures. Structures can show the parent of a compound that is named as a salt.

T7 sequence (P13674 18-534): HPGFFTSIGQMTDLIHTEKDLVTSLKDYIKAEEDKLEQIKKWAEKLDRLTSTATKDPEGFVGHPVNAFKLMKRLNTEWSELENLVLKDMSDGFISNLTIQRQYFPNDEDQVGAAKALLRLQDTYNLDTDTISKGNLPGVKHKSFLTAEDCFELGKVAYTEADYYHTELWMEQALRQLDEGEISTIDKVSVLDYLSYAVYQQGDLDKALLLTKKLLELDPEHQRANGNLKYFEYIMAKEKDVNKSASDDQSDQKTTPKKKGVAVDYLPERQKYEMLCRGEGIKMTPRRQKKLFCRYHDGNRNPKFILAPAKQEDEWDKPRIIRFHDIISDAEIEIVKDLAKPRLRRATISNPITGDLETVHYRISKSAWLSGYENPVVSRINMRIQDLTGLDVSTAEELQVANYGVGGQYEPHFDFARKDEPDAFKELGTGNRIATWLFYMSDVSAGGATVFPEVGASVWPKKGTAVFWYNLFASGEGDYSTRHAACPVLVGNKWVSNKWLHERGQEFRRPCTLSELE
T7 sequence (P07237 18-508 partner): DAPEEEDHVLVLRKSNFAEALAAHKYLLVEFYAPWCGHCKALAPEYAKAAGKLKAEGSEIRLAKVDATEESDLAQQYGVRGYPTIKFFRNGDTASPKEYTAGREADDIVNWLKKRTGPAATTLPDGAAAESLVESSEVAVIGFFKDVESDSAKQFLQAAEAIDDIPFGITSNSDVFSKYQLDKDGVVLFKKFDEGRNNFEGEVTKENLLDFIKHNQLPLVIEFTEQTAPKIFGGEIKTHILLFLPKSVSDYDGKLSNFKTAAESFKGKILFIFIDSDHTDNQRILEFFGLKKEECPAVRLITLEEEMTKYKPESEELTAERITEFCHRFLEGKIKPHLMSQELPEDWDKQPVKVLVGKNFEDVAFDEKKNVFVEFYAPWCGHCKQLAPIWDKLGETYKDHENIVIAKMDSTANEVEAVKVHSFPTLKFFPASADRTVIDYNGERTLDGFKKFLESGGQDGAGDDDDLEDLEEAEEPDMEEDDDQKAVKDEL
T3 sequence (Q9GZT9 whole entry): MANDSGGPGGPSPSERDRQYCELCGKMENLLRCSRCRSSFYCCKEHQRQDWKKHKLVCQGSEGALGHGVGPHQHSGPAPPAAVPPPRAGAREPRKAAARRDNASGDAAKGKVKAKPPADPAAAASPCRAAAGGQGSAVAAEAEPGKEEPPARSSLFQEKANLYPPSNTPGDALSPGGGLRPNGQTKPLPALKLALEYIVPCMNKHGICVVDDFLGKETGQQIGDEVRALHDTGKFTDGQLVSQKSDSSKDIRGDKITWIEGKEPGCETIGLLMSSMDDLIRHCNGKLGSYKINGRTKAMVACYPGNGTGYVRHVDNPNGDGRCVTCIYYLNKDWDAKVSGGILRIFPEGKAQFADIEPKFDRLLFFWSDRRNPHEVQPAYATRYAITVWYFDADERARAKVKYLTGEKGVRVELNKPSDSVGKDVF

With `O=C(O)CNC(=O)C1C(=O)OC2(CCCNC2)OC1=O` (centres unmarked) [compound B, 2-(2,4-dioxo-1,5-dioxa-8-azaspiro[5.5]undecane-3-carboxamido)acetic acid hydrochloride], the remaining binding at 200 µM on C17ORF101 [1] was found to be 52%; on LEPRE1 [2] it was 67%; at EGLN1 [3] it was 52%; on LEPREL2 [4] it was 13%; at ALKBH3 [5], 56%; at OGFOD2, 18%. Moreover, on P4HA1 [6], the remaining binding at 200 µM amounted to 24%.

Regarding `O=C(O)CNC(=O)C1C(=O)OC(C2CCNCC2)OC1=O` (centres unmarked) [compound C, 2-(4,6-dioxo-2-(piperidin-4-yl)-1,3-dioxane-5-carboxamido)acetic acid hydrochloride], the remaining binding at 200 µM on C17ORF101 [7] came out at 24%; at LEPRE1 [8] it was 48%; on EGLN1 [9], 19%; at LEPREL2 [10] it was 12%; at PLOD1, 51%; on ALKBH3 [11], 45%. The remaining binding at 200 µM at P4HA1 [12] was found to be 10%.

Values taken from patent EP2505659A1, “Methods for the identification of dioxygenase interacting molecules and for the purification of dioxygenase proteins” (CELLZOME AG, priority 2011, dated 2012).
